From EP0741709B1, “AROMATIC 2-AMINO-IMIDAZOLE DERIVATIVES AS ALPHA-2A ADRENOCEPTOR AGONISTS” (Allergan Sales, Inc., priority 1994, dated 1995)

Biological target: T1, rat α2B adrenoceptor (Rattus norvegicus, UniProt P19328)
T1 construct: expressed in transfected cells; host or cells: CHO (CHO-RNG)
T1 sequence (P19328 1-453): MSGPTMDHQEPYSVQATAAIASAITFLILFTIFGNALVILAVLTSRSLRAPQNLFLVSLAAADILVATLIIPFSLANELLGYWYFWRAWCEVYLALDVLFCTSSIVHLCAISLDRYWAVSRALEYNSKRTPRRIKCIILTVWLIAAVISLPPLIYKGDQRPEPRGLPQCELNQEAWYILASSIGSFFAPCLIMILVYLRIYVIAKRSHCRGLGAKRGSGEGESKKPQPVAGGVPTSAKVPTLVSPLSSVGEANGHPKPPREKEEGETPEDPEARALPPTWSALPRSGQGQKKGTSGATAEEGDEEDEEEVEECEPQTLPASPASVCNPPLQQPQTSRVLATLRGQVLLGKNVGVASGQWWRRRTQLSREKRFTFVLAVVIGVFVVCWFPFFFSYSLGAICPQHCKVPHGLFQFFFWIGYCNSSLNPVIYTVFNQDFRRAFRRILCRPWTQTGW
Assay: Receptor binding assay, [3H]rauwolscine, CHO-RNG cell membranes
Details: 22°C, 30 minutes
Description: (§1) Cell preparation: Chinese hamster ovary (CHO) cells expressing the human α2A and human α2C (CHO-C10 and CHO-C4 respectively) receptors and CHO cells (CHO-RNG) expressing the rat α2B adrenoceptor were grown to near confluence in Dulbecco's modified Eagle's medium supplemented with 10% fetal bovine serum using standard cell culture methods. Cells were harvested by scraping and placed into cold buffer of the following composition: 50 mM Tris-HCl, 5 mM EDTA, pH 7.4). Cells were then homogenized with a Polytron homogenizer for 2 X 10 sec at setting #7, and centrifuged for 20 minutes at 49,000 x g. The pellet fraction was washed (resuspended in Tris-HCl, pH 8 buffer and centrifuged for 15-20 minutes at 49,000 x g) 2 times and stored at -100°C until binding assay.
Binding Studies: The radioligands [^3H]rauwolscine (specific activity 80 Ci/mmol) and [^3H]prazosin (specific activity 76 Ci/mmol) were obtained from New England Nuclear, Boston, MA. Frozen membrane pellet was resuspended in 25 mM glycine/glycine, pH 7.5 and incubated with radioligand under the following conditions: CHO-C10, CHO-RNG, CHO-C4-[^3H]rauwolscine, 22°C, 30 minutes; RKC-[^3H]rauwolscine, 0°C, 120 minutes; and, HCC-[^3H]prazosin, 22°C, 30 minutes in a final volume of 500 ul. At the end of the incubation period, the samples were filtered through glass filters (Whatman GF/B) in a 96 well cell harvester and rapidly washed four times with 4 mL of iced-cold 50 mM Tris-HCl buffer. The filters were then oven dried and transferred to scintillation vials containing 10 mL of Beckman's Ready Protein® scintillation cocktail for counting. Specific binding defined by 10 uM phentolamine for competition studies were as follows: 2.4 nM [^3H]brimonidine-RbICB 62%; 2.4 nM [^3H]rauwolscine-RbICB 75%; 2 nM [^3H]rauwolscine-RbKc 88%; 0.3 nM [^3H] rauwolscine-CHO-C10 99%; 0.4 nM [^3H]rauwolscine-CHO-RNG 99%, 0.3 nM [^3H]prazosin 87%; and 1 nM [^3H]rauwolscine-CHO-C4 90%. Protein concentrations were determined with a protein assay kit from Bio Rad. Binding isotherms, equilibrium dissociation and affinity constants were analyzed and determined by the non-linear least squares curve fitting programs EBDA (BioSoft) or AccuFit Competition/Saturation by Beckman.
as §1, with “α2A (CHO-C10)” for “α2A”, “and” for “and human α2C (CHO-C10 and CHO-C4 respectively) receptors and CHO cells (CHO-RNG) expressing”, “α2B(CHO-RNG) human α2Aadrenoceptors” for “α2B adrenoceptor”
The radioligands [^3H)rauwolscine (specific activity 80 Ci/mmol) and [^3H]prazosin (specific activity 76 Ci/mmol) were obtained from New England Nuclear, Boston, MA. Frozen membrane pellet was resuspended in 25 mM glycine/glycine, pH 7.4 and incubated with radioligand under the following conditions: CHO-C10, CHO-RNG, CHO-C4-[^3H]rauwolscine, 22°C, 30 min.; and, HCC-[^3H]prazosin, 22°C, 30 minutes in a final volume of 500 ul. At the end of the incubation period, the samples were filtered through glass fiber filters (Whatman GF/B) in a 96 well cell harvester and rapidly washed four times with 4 mL of iced-cold 50 mM Tris-CHl buffer. The filters were then oven dried and transferred to scintillation vials containing 5 mL of Beckman's Ready Protein® scintillation cocktail for counting. Specific binding defined by 10 uM phentolamine for competition studies were as follows: 0.3 nM[^3H] rauwolscine-CHO-C10 99%; 0.4 nM [^3H]rauwolscine-CHO-RNG 99%, and 0.3 nM [^3H] prazosin-HCC 87%. Protein concentrations were determined with a protein assay kit from Bio Rad. […]

| Compound | Ki [nM] |
| --- | --- |
| Clc1ccccc1Nc1ncc[nH]1 | 1940 |
| Cc1c(Nc2ncc[nH]2)ccc2c1NCCO2 | 436 |
| Clc1cccc(Cl)c1Nc1ncc[nH]1 | 587 |
| c1ccc(Nc2ncc[nH]2)cc1 | 1890 |
| Brc1c(Nc2ncc[nH]2)ccc2nccnc12 | 12900 |
| Brc1ccccc1Nc1ncc[nH]1 | 1450 |
| Cc1c(Nc2ncc[nH]2)ccc2nccnc12 | 1160 |

Second part, the compound after the results:

| Ki [nM] | Compound |
| --- | --- |
| 561 | Cc1ccccc1Nc1ncc[nH]1 |
| 152 | c1cc2c(c(Nc3ncc[nH]3)c1)CCCC2 |
| 82 | Cc1c(Nc2ncc[nH]2)ccc2c1OCCO2 |
| 434 | COc1ccc(Nc2ncc[nH]2)c(C)c1 |
